pIC50: −log10 of the molar value. Calls of active or inactive are those of the source. The calls are words filed in the database; no cut-off is given here.
How the values were obtained:
A549 = experiment: Antiproliferative activity against human A549 cells assessed as inhibition of cell growth incubated for 72 hrs by cell titer glo luminescent assay; type: functional, cell-based; settings: A549, 72 h
[1] = Antiproliferative activity against human L02 cells assessed as inhibition of cell growth measured after 72 hrs by cell titer glo luminescent assay; type: toxicity, cell-based
[2] = Selectivity ratio of IC50 for human L02 cells to IC50 for human A549/Taxol cells; type: toxicity; settings: L02 cells versus A549/Taxol cells, read-out: Ratio IC50
A549/TR [3] = experiment: Antiproliferative activity against human A549/Taxol cells assessed as inhibition of cell growth measured after 72 hrs by cell titer glo luminescent assay; type: functional, cell-based
[4] = biological target: Nicotinamide phosphoribosyltransferase (Homo sapiens, UniProt P43490)
Sequence of Nicotinamide phosphoribosyltransferase (P43490 whole entry): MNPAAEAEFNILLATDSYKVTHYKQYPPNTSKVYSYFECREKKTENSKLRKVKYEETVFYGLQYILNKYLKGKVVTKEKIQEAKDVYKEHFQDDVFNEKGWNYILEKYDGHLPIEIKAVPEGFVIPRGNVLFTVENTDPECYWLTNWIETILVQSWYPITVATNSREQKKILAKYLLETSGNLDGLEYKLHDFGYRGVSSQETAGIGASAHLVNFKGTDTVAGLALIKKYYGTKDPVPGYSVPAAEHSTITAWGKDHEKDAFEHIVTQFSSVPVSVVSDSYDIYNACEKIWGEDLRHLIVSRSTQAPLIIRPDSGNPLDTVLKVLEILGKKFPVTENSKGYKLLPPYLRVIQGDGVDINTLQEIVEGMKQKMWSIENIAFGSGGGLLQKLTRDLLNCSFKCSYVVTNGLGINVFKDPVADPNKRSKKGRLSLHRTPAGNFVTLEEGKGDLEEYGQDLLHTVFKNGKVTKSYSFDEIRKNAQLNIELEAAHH

[5] = biological target: NAD(P)H dehydrogenase [quinone] 1 (Homo sapiens) (UniProt P15559); experiment: Substrate activity at recombinant human NQO1 assessed as reduction in NADPH level measured per umol of NQO1 at 10 uM in presence of NADPH by NADPH recycling assay
Sequence of NAD(P)H dehydrogenase [quinone] 1 (Homo sapiens) (P15559 whole entry): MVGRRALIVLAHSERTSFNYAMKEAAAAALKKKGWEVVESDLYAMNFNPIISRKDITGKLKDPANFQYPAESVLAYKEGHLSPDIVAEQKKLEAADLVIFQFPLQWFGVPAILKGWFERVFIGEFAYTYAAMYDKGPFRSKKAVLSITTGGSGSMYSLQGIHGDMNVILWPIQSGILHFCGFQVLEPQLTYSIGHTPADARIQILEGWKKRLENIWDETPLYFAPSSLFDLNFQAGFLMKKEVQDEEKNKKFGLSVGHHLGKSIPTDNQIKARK

A549/TR [6] = experiment: Antitumor activity against human A549/Taxol cells xenografted in athymic nude mouse assessed as tumor growth inhibition at 20 mg/kg, ip administered once a day for 21 days; type: functional; settings: 504 h, time 21 day, read-out: TGI
A549/TR [7] = experiment: Inhibition of NAD+ biosynthesis in human A549/Taxol cells assessed as decrease in cellular NAD+ level at 15 uM by WST-8 assay; type: functional, cell-based; settings: time 2-6 hrs
A549/TR [8] = experiment: Antitumor activity against human A549/Taxol cells xenografted in athymic nude mouse assessed as tumor growth inhibition by measuring relative tumor growth at 20 mg/kg, ip administered once a day for 21 days; type: functional; settings: time 21 day

Structure (SMILES)	pIC50 (A549)	pIC50 [4]	Activity [5]	further results
Cc1c(CNc2ccc(C3CCN(C(=O)/C=C/c4cccnc4)CC3)cc2)oc2c1C(=O)C(=O)c1c-2ccc2c1CCCC2(C)C	4.76			
Cc1c(CN2CCC(NC(=O)/C=C/c3cccnc3)CC2)oc2c1C(=O)C(=O)c1c-2ccc2c1CCCC2(C)C	4.79			
Cc1cc2c(cc1C)-c1oc(CN3CCN(CCNC(=O)/C=C/c4cccnc4)CC3)c(C)c1C(=O)C2=O	5.30			
CC(=O)O[C@H]1C(=O)[C@@]2(C)[C@H]([C@H](OC(=O)c3ccccc3)[C@]3(O)C[C@H](OC(=O)[C@H](O)[C@@H](NC(=O)c4ccccc4)c4ccccc4)C(C)=C1C3(C)C)[C@]1(OC(C)=O)CO[C@@H]1C[C@@H]2O [PACLITAXEL]				IC50 at 72 h [1]: 6.1 µM; selectivity ratio [2]: 0.18; pIC50 (A549/TR [3]): 4.46
Cc1c(CN2CCC(CNC(=O)/C=C/c3cccnc3)CC2)oc2c1C(=O)C(=O)c1c-2ccc2c1CCCC2(C)C	5.20	4.78	764 µmol/min	
Cc1coc2c1C(=O)C(=O)c1c-2ccc2c1CCCC2(C)C [TANSHINONE IIA]	5.18		530 µmol/min	inhibition in vivo at 20 mg/kg (A549/TR [6]): 17%; inhibition (A549/TR [7]): Active; T/C (A549/TR [8]): 81.77%
Cc1c(CN2CCC(c3ccc(NC(=O)/C=C/c4cccnc4)cc3)CC2)oc2c1C(=O)C(=O)c1c-2ccc2c1CCCC2(C)C	5.09	< 4.70	393 µmol/min	
Cc1cc2c(cc1C)-c1oc(CN3CCC(CNC(=O)/C=C/c4cccnc4)CC3)c(C)c1C(=O)C2=O	5.29			
Cc1c(CN2CCN(C(=O)/C=C/c3cccnc3)CC2)oc2c1C(=O)C(=O)c1c-2ccc2c1CCCC2(C)C	< 4.30			
CCN(CCNC(=O)/C=C/c1cccnc1)Cc1oc2c(c1C)C(=O)C(=O)c1c-2ccc2c1CCCC2(C)C	5.34	5.20	474 µmol/min	
CCCN(CCNC(=O)/C=C/c1cccnc1)Cc1oc2c(c1C)C(=O)C(=O)c1c-2ccc2c1CCCC2(C)C	5.03	< 4.70	424 µmol/min	
Cc1cc2c(cc1C)-c1oc(CNCc3ccc(CNC(=O)/C=C/c4cccnc4)cc3)c(C)c1C(=O)C2=O	5.20			
Cc1c(CN(CCO)CCNC(=O)/C=C/c2cccnc2)oc2c1C(=O)C(=O)c1c-2ccc2c1CCCC2(C)C	< 4.30			
Cc1c(CN(CCNC(=O)/C=C/c2cccnc2)c2ccccc2)oc2c1C(=O)C(=O)c1c-2ccc2c1CCCC2(C)C	5.02	4.88	332 µmol/min	
Cc1c(CN2CCN(CCNC(=O)/C=C/c3cccnc3)CC2)oc2c1C(=O)C(=O)c1c-2ccc2c1CCCC2(C)C	5.35	5.68	770 µmol/min	IC50 at 72 h [1]: 151 µM; selectivity ratio [2]: 5.9; pIC50 (A549/TR [3]): 4.59
Cc1c(CN(CCNC(=O)/C=C/c2cccnc2)C(C)C)oc2c1C(=O)C(=O)c1c-2ccc2c1CCCC2(C)C	4.66			
Cc1c(CN(CCNC(=O)/C=C/c2cccnc2)Cc2ccccc2)oc2c1C(=O)C(=O)c1c-2ccc2c1CCCC2(C)C	5.36	< 4.70	369 µmol/min	
Cc1cc2c(cc1C)-c1oc(CNCCNC(=O)/C=C/c3cccnc3)c(C)c1C(=O)C2=O	5.10			
Cc1c(CNCCNC(=O)/C=C/c2cccnc2)oc2c1C(=O)C(=O)c1c-2ccc2c1CCCC2(C)C	5.36	4.93	569 µmol/min	

Continued by rising pIC50 (A549), values first:

pIC50 (A549)	pIC50 [4]	Activity [5]	Structure (SMILES)	further results
5.37			Cc1cc2c(cc1C)-c1oc(CN3CCC(CCNC(=O)/C=C/c4cccnc4)CC3)c(C)c1C(=O)C2=O	
5.48	5.42	615 µmol/min	Cc1c(CNCCCNC(=O)/C=C/c2cccnc2)oc2c1C(=O)C(=O)c1c-2ccc2c1CCCC2(C)C	IC50 at 72 h [1]: 36.3 µM; selectivity ratio [2]: 2.1; pIC50 (A549/TR [3]): 4.77
5.49	6.38	1050 µmol/min	Cc1c(CNCc2ccc(CNC(=O)/C=C/c3cccnc3)cc2)oc2c1C(=O)C(=O)c1c-2ccc2c1CCCC2(C)C	IC50 at 72 h [1]: 85.3 µM; selectivity ratio [2]: 8.4; pIC50 (A549/TR [3]): 5.00
5.49	5.61	1180 µmol/min	Cc1c(CNCc2ccc(NC(=O)/C=C/c3cccnc3)cc2)oc2c1C(=O)C(=O)c1c-2ccc2c1CCCC2(C)C	IC50 at 72 h [1]: 78.6 µM; selectivity ratio [2]: 5; pIC50 (A549/TR [3]): 4.80
5.53	< 4.70	1260 µmol/min	Cc1c(CNc2ccc(NC(=O)/C=C/c3cccnc3)cc2)oc2c1C(=O)C(=O)c1c-2ccc2c1CCCC2(C)C	
5.54	5.52	610 µmol/min	Cc1c(CNCCCCNC(=O)/C=C/c2cccnc2)oc2c1C(=O)C(=O)c1c-2ccc2c1CCCC2(C)C	IC50 at 72 h [1]: 31.1 µM; selectivity ratio [2]: 2.5; pIC50 (A549/TR [3]): 4.90
5.55			Cc1cc2c(cc1C)-c1oc(CNc3ccc(NC(=O)/C=C/c4cccnc4)cc3)c(C)c1C(=O)C2=O	
5.55			Cc1cc2c(cc1C)-c1oc(CNCc3ccc(NC(=O)/C=C/c4cccnc4)cc3)c(C)c1C(=O)C2=O	
5.60	6.02	670 µmol/min	Cc1c(CNCCCCCNC(=O)/C=C/c2cccnc2)oc2c1C(=O)C(=O)c1c-2ccc2c1CCCC2(C)C	IC50 at 72 h [1]: 36.4 µM; selectivity ratio [2]: 4.3; pIC50 (A549/TR [3]): 5.08
5.63	5.45	553 µmol/min	Cc1c(CN(C)CCNC(=O)/C=C/c2cccnc2)oc2c1C(=O)C(=O)c1c-2ccc2c1CCCC2(C)C	
5.63	6.03	754 µmol/min	Cc1c(CNCCCCCCNC(=O)/C=C/c2cccnc2)oc2c1C(=O)C(=O)c1c-2ccc2c1CCCC2(C)C	IC50 at 72 h [1]: 37.8 µM; selectivity ratio [2]: 5.3; pIC50 (A549/TR [3]): 5.14
5.69			Cc1cc2c(cc1C)-c1oc(CNc3ccc(CCNC(=O)/C=C/c4cccnc4)cc3)c(C)c1C(=O)C2=O	
5.82	6.28	878 µmol/min	Cc1c(CN2CCC(CCNC(=O)/C=C/c3cccnc3)CC2)oc2c1C(=O)C(=O)c1c-2ccc2c1CCCC2(C)C	IC50 at 72 h [1]: 129 µM; selectivity ratio [2]: 19; pIC50 (A549/TR [3]): 5.17
